Target: human 3β-HSD1
Test: 3β-HSD1 inhibition, colorimetric NADH detection assay
Assay type: biochemical
Settings: purified recombinant human 3β-HSD1, 50 μM DHEA, 2 mM NAD+, 1 hour, room temperature, duplicate 10-point CRC; read-out: IC50 (nM), in vitro NADH inhibition
Source text: Enzymatic turnover was quantified through NADH generation by purified, recombinant human 3β-HSD1 (expressed in Sf9 insect cells) in the presence of steroidal substrate trans-Dehydroandrosterone (DHEA) that was placed slightly above the experimentally determined Km and saturating amounts of co-factor Nicotinamide adenine dinucleotide (NAD^+). The sequence of recombinant human 3β-HSD1 used is […] […] […] […] […] […] […] (SEQ ID NO: 3). DHEA and NAD+ were enzymatically converted to androstenedione and NADH, respectively. Final NADH concentrations were spectroscopically quantified using a commercially available Amplite™ Colorimetric NADH Assay Kit which utilizes an NADH probe with an absorbance wavelength of 460 nm. Enzymatic assays with a final volume of 25 μL were ran in a 384-well, Greiner Bio-One UV-STAR® assay plate in 50 mM TRIS pH 8.0 assay buffer. […] Compound stocks at 10 mM in DMSO were serial diluted 5-fold in DMSO to generate an ECHO® compatible source plate. 125 nL of DMSO, Trilostane, or serial diluted compounds were then acoustically transferred into an empty UV-STAR® assay plate to give a final assay concentration of 0.5% v/v DMSO. The stamp volume and dilution scheme can be adjusted to accommodate compound potency. The assay can tolerate up to a 5% v/v DMSO final assay concentration. 15 μL of 1 μg purified 3β-HSD1 and 50 μM DHEA (final assay volume concentration) was dispensed per well into the stamped plate, centrifuged for 1 minute at 1000 RPM, covered, and allowed to incubate for 15 minutes at room temp. Enzymatic reactions were initiated upon the addition of 10 μL of NAD^+ diluted in assay buffer to give a final assay volume concentration of 2 mM. The assay plate was centrifuged for 1 minute at 1000 RPM, covered, and incubated at room temperature for 1 hour. 25 μL Amplite™ Colorimetric NADH Assay Kit detection solution (prepared as recommended) was added to all reaction wells, the plate centrifuged for 1 minute at 1000 RPM, covered, and incubated for 15 minutes. Final absorbance values (λ=460 nm) are spectroscopically determined on BioTek® Cytation5 or Synergy4 plate readers. […] From the background subtracted values, the non-inhibited enzyme signal (DMSO treated) was averaged from 32 control reactions. The percent inhibition value was calculated by: % inhibition=(1−((background subtracted inhibited reaction)/(background subtracted non-inhibited average)))*100. The resulting percent inhibition was then plotted in duplicate against corresponding concentration values. The resulting CRCs were fit with a four parameter, variable slope log (inhibitor) vs response equation where Y=bottomvalue+ (topvalue−bottomvalue)/(1+10^((log IC50−X)*Hillslope)) to determine the IC50 values for tested compounds.

human 3β-HSD1, sequence (P14060 2-373 limits assumed): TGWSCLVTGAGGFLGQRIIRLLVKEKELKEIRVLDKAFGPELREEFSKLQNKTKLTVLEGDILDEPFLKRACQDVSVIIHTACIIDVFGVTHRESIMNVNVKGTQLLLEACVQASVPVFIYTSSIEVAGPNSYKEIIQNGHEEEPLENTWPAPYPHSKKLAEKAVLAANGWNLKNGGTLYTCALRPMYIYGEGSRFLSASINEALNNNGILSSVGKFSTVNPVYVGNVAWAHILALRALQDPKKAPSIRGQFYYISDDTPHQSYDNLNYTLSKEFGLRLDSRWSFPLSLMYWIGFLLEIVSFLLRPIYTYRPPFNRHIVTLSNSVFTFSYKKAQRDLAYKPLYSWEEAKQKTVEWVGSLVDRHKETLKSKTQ

Molecule N#Cc1cc(-c2ccc3c(n2)CCCC3=O)ccc1O [Compound 3, 2-hydroxy-5-(5-oxo-5,6,7,8-tetrahydroquinolin-2-yl)benzonitrile] has an IC50 of 651 nM.
In the case of CC1(C)CCc2nc(-c3ccc(O)c(C#N)c3)ccc2C1=O [Compound 4, 5-(6,6-dimethyl-5-oxo-5,6,7,8-tetrahydroquinolin-2-yl)-2-hydroxybenzonitrile], the IC50 is reported as 1860 nM.
CC1(C)CCc2nc(-c3ccc(O)c(F)c3)ccc2C1=O [Compound 6, 2-(3-fluoro-4-hydroxyphenyl)-6,6-dimethyl-7,8-dihydroquinolin-5(6H)-one] gave an IC50 of 51 nM.
In the case of Oc1c(F)cc(-c2ccc3c(n2)CCCC3O)cc1F (centres unmarked) [Compound 13], the IC50 is reported as 748 nM.
With CC1(O)CCCc2nc(-c3cc(F)c(O)c(F)c3)ccc21 (centres unmarked) [Compound 14] the IC50 was 339 nM.
With NC1CCCc2nc(-c3cc(F)c(O)c(F)c3)ccc21 (centres unmarked) [Compound 15] the IC50 was 3440 nM.
For CC1(C)CCc2nc(-c3cc(F)c(O)c(F)c3)ccc2C1(O)Cc1ccccc1 (centres unmarked) [Compound 17], the IC50 was 227 nM.
CC1(C)CCc2nc(-c3ccc(O)c(F)c3)ccc2C1(C)O (centres unmarked) [Compound 18] gave an IC50 of 504 nM.
For CC1(C)CCc2nc(-c3cc(F)c(O)c(F)c3)ccc2C1(O)c1ccccc1 (centres unmarked) [Compound 19], the IC50 was 314 nM.
With O=C1CCCc2nc(-c3cnc(O)c(F)c3)ccc21 [Compound 21] the IC50 was 6100 nM.
For O=C1CCc2nc(-c3cc(F)c(O)c(F)c3)ccc21 [Compound 22], the IC50 was 297 nM.
O=C1CCCc2nc(-c3cc(F)c(O)c(Cl)c3)ccc21 [Compound 23] gave an IC50 of 49 nM.
O=C1CCCc2nc(-c3cc(F)c(O)cc3F)ccc21 [Compound 24] showed an IC50 of 83 nM.
Molecule O=C1CCNc2nc(-c3cc(F)c(O)c(F)c3)ccc21 [Compound 26] has an IC50 of 218 nM.
In the case of Cc1c(-c2ccc3c(n2)CCCC3=O)cc(F)c(O)c1F [Compound 27], the IC50 is reported as 367 nM.
O=C1CCCc2nc(-c3c(F)c(F)c(O)c(F)c3F)ccc21 [Compound 28] was tested, and the IC50 was 3000 nM.
O=C1c2ccc(-c3cc(F)c(O)c(F)c3)nc2CCC1CC1CC1 (centres unmarked) [Compound 29] gave an IC50 of 130 nM.
O=C1c2ccc(-c3cc(F)c(O)c(F)c3)nc2CCC12CCC2 [Compound 30] showed an IC50 of 303 nM.
In the case of Cc1cc(-c2cc(F)c(O)c(F)c2)nc2c1C(=O)CCC2 [Compound 31], the IC50 is reported as 991 nM.
O=C1CCCCc2nc(-c3cc(F)c(O)c(F)c3)ccc21 [Compound 32] showed an IC50 of 90 nM.
Work on CC1(C)CCCc2nc(-c3cc(F)c(O)c(F)c3)ccc2C1=O [Compound 33] yielded an IC50 of 292 nM.
Molecule CC1(O)CCc2nc(-c3cc(F)c(O)c(F)c3)ccc2C1=O (centres unmarked) [Compound 34] has an IC50 of 446 nM.
With CC1(C#N)CCc2nc(-c3cc(F)c(O)c(F)c3)ccc2C1=O (centres unmarked) [Compound 35] the IC50 was 92 nM.
CC1(C(F)(F)F)CCc2nc(-c3cc(F)c(O)c(F)c3)ccc2C1=O (centres unmarked) [Compound 36] was tested, and the IC50 was 59 nM.
In the case of O=C(O)CC1CCc2nc(-c3cc(F)c(O)c(F)c3)ccc2C1=O (centres unmarked) [Compound 37], the IC50 is reported as 2840 nM.
Molecule O=C1c2ccc(-c3cc(F)c(O)c(F)c3)nc2CCC1Cc1ccccn1 (centres unmarked) [Compound 38] has an IC50 of 272 nM.
In the case of O=C1c2ccc(-c3cc(F)c(O)c(F)c3)nc2CCC1Cc1cccnc1 (centres unmarked) [Compound 39], the IC50 is reported as 249 nM.
Work on O=C1c2ccc(-c3cc(F)c(O)c(F)c3)nc2CCC1Cc1ccncc1 (centres unmarked) [Compound 40] yielded an IC50 of 212 nM.
Work on CC1(C)CC(=O)c2ccc(-c3cc(F)c(O)c(F)c3)nc2C1 [Compound 42] yielded an IC50 of 287 nM.
CCC1(O)CCCc2nc(-c3cc(F)c(O)c(F)c3)ccc21 (centres unmarked) [Compound 43] was tested, and the IC50 was 365 nM.
CCc1cc(-c2cc(F)c(O)c(F)c2)nc2c1C(=O)CCC2 [Compound 44] was tested, and the IC50 was 1280 nM.
CC(C)c1cc(-c2cc(F)c(O)c(F)c2)nc2c1C(=O)CCC2 [Compound 45] was tested, and the IC50 was 8610 nM.
Work on CC1(F)CCc2nc(-c3cc(F)c(O)c(F)c3)ccc2C1=O (centres unmarked) [Compound 46] yielded an IC50 of 42 nM.
O=C1c2ccc(-c3cc(F)c(O)c(F)c3)nc2CC[C@@H]1Cc1ccccc1 [Compound 47] gave an IC50 of 177 nM.
In the case of O=C1c2ccc(-c3cc(F)c(O)c(F)c3)nc2CC[C@H]1Cc1ccccc1 [Compound 48], the IC50 is reported as 19 nM.
